Measured values as given in patent US12459922B2 (Gilead Sciences, Inc., priority 2022, dated 2025).

What follows are molecules tested on endogenous cellular STAT1 (phosphorylated at Tyr701) in NCI-H1373 cells (assay: Phospho-STAT1 (Tyr701) LANCE Ultra TR-FRET Detection Assay). Conditions: Homo sapiens, NCI-H1373, 48 h, phospho-STAT1 (Tyr701) induction, read-out: NH1373 pSTAT1 EC50.
Type: cell-based
Work on `O=c1[nH]ncc(N[C@H](CCCn2cnc3cc(-c4ncc(C(F)(F)F)cn4)c(F)cc3c2=O)C2CC2)c1C(F)(F)F` [Example 471, 3-[(4R)-4-cyclopropyl-4-[[6-oxo-5-(trifluoromethyl)-1H-pyridazin-4-yl]amino]butyl]-6-fluoro-7-[5-(trifluoromethyl)pyrimidin-2-yl]quinazolin-4-one] yielded an EC50 of 0.0232 µM.
For `O=c1[nH]ncc(N[C@H]2CCC[C@@H](Cn3cc(F)c4cc(-c5ncc(C(F)F)cn5)c(F)cc4c3=O)C2)c1C(F)(F)F` [Example 482, 6-(5-(difluoromethyl)pyrimidin-2-yl)-4,7-difluoro-2-(((1R,3S)-3-((6-oxo-5-(trifluoromethyl)-1,6-dihydropyridazin-4-yl)amino)cyclohexyl)methyl)isoquinolin-1(2H)-one], the EC50 was 0.00194 µM.
With `Nc1nc(-c2cc3ncn(C[C@@H]4CCC[C@H](Nc5cn[nH]c(=O)c5C(F)(F)F)C4)c(=O)c3cc2F)ncc1Cl` [Example 261, 7-(4-amino-5-chloropyrimidin-2-yl)-6-fluoro-3-(((1R,3S)-3-((6-oxo-5-(trifluoromethyl)-1,6-dihydropyridazin-4-yl)amino)cyclohexyl)methyl)quinazolin-4(3H)-one] the EC50 was 0.0061 µM.
For `Nc1nc(-c2cc3ccn(CC[C@H]4CCC[C@@H]4Nc4cn[nH]c(=O)c4C(F)(F)F)c(=O)c3cc2F)ncc1C(F)(F)F` [Example 178, 6-(4-amino-5-(trifluoromethyl)pyrimidin-2-yl)-7-fluoro-2-(2-((1R,2S)-2-((6-oxo-5-(trifluoromethyl)-1,6-dihydropyridazin-4-yl)amino)cyclopentyl)ethyl)isoquinolin-1(2H)-one], the EC50 was 0.0018 µM.
In the case of `O=c1[nH]ncc(N[C@H](CCCn2ccc3cc(-c4ncc(C(F)(F)F)cn4)c(F)cc3c2=O)c2nnc(C3CC3)o2)c1C(F)(F)F` [Example 476, 2-[(4R)-4-(5-cyclopropyl-1,3,4-oxadiazol-2-yl)-4-[[6-oxo-5-(trifluoromethyl)-1H-pyridazin-4-yl]amino]butyl]-7-fluoro-6-[5-(trifluoromethyl)pyrimidin-2-yl]isoquinolin-1-one], the EC50 is reported as 0.0203 µM.
`Nc1nc(-c2cc3ccn(C[C@@H]4CCC[C@H](Nc5cn[nH]c(=O)c5C(F)(F)F)C4)c(=O)c3c(F)c2F)ncc1C(F)F` [Example 239] gave an EC50 of 0.00537 µM.
Molecule `CCOc1ccc(-c2cc3ccn(CCC[C@H](C)Nc4cn[nH]c(=O)c4C(F)(F)F)c(=O)c3cc2F)nc1N` [Example 193, (S)-6-(6-amino-5-ethoxypyridin-2-yl)-7-fluoro-2-(4-((6-oxo-5-(trifluoromethyl)-1,6-dihydropyridazin-4-yl)amino)pentyl)isoquinolin-1(2H)-one] has an EC50 of 0.0223 µM.
`[2H]C([2H])([2H])OC[C@@H](CCCn1ccc2cc(-c3ncc(C(F)(F)F)c(N)n3)c(F)cc2c1=O)Nc1cn[nH]c(=O)c1C(F)(F)F` [Example 427, 6-[4-amino-5-(trifluoromethyl)pyrimidin-2-yl]-7-fluoro-2-[(4R)-4-[[6-oxo-5-(trifluoromethyl)-1H-pyridazin-4-yl]amino]-5-(trideuteriomethoxy)pentyl]isoquinolin-1-one] showed an EC50 of 0.00287 µM.
`C[C@@H](CCCn1ccc2cc(-c3cc(F)c(N)cn3)c(F)cc2c1=O)Nc1cn[nH]c(=O)c1C(F)(F)F` [Example 96, (S)-6-(5-amino-4-fluoropyridin-2-yl)-7-fluoro-2-(4-((6-oxo-5-(trifluoromethyl)-1,6-dihydropyridazin-4-yl)amino)pentyl)isoquinolin-1(2H)-one] showed an EC50 of 0.558 µM.
`Nc1cc(-c2cc3ccn(CCC[C@H](COC(F)F)Nc4cn[nH]c(=O)c4C(F)(F)F)c(=O)c3cc2F)cnc1C(F)(F)F` [Example 400, (R)-6-(5-amino-6-(trifluoromethyl)pyridin-3-yl)-2-(5-(difluoromethoxy)-4-((6-oxo-5-(trifluoromethyl)-1,6-dihydropyridazin-4-yl)amino)pentyl)-7-fluoroisoquinolin-1(2H)-one] showed an EC50 of 0.0568 µM.
In the case of `O=c1[nH]ncc(N[C@H](CCCn2ccc3cc(-c4ncc(C(F)F)cn4)c(F)c(F)c3c2=O)COC(F)F)c1C(F)(F)F` [Example 388, (R)-2-(5-(difluoromethoxy)-4-((6-oxo-5-(trifluoromethyl)-1,6-dihydropyridazin-4-yl)amino)pentyl)-6-(5-(difluoromethyl)pyrimidin-2-yl)-7,8-difluoroisoquinolin-1(2H)-one], the EC50 is reported as 0.00274 µM.
With `O=c1[nH]ncc(N[C@H]2CCC[C@@H](Cn3cnc4cc(-c5ncc(C(F)(F)F)cn5)c(F)cc4c3=O)C2)c1C(F)(F)F` [Example 235] the EC50 was 0.00438 µM.
Work on `C[C@@H](CCCn1ccc2cc(-c3ncc(C(F)(F)F)c(N4CC(C)(O)C4)n3)c(F)cc2c1=O)Nc1cn[nH]c(=O)c1C(F)(F)F` [Example 191, (S)-7-fluoro-6-(4-(3-hydroxy-3-methylazetidin-1-yl)-5-(trifluoromethyl)pyrimidin-2-yl)-2-(4-((6-oxo-5-(trifluoromethyl)-1,6-dihydropyridazin-4-yl)amino)pentyl)isoquinolin-1(2H)-one] yielded an EC50 of 0.0269 µM.
For `C[C@@H](CCCn1cnc2cc(-c3ncc(C(F)(F)F)c(N4CC(C)(O)C4)n3)c(F)cc2c1=O)Nc1cn[nH]c(=O)c1C(F)(F)F` [Example 190, (S)-6-fluoro-7-(4-(3-hydroxy-3-methylazetidin-1-yl)-5-(trifluoromethyl)pyrimidin-2-yl)-3-(4-((6-oxo-5-(trifluoromethyl)-1,6-dihydropyridazin-4-yl)amino)pentyl)quinazolin-4(3H)-one], the EC50 was 0.0299 µM.
`Nc1nc(-c2cc3ccn(CCC[C@H](COC(F)F)Nc4cn[nH]c(=O)c4C(F)(F)F)c(=O)c3cc2F)cnc1C(F)(F)F` [Example 416, (R)-6-(6-amino-5-(trifluoromethyl)pyrazin-2-yl)-2-(5-(difluoromethoxy)-4-((6-oxo-5-(trifluoromethyl)-1,6-dihydropyridazin-4-yl)amino)pentyl)-7-fluoroisoquinolin-1(2H)-one] was tested, and the EC50 was 0.00678 µM.
With `O=c1[nH]ncc(N[C@H](CCCn2ccc3cc(-c4cnc(OC(F)F)cn4)c(F)cc3c2=O)COC(F)F)c1C(F)(F)F` [Example 371, (R)-2-(5-(difluoromethoxy)-4-((6-oxo-5-(trifluoromethyl)-1,6-dihydropyridazin-4-yl)amino)pentyl)-6-(5-(difluoromethoxy)pyrazin-2-yl)-7-fluoroisoquinolin-1(2H)-one] the EC50 was 0.00678 µM.
`C[C@@H](CCCn1ccc2cc(-c3ncc(C(F)(F)F)c(N4CCC4)n3)c(F)cc2c1=O)Nc1cn[nH]c(=O)c1C(F)(F)F` [Example 187, (S)-6-(4-(azetidin-1-yl)-5-(trifluoromethyl)pyrimidin-2-yl)-7-fluoro-2-(4-((6-oxo-5-(trifluoromethyl)-1,6-dihydropyridazin-4-yl)amino)pentyl)isoquinolin-1(2H)-one] was tested, and the EC50 was 0.0207 µM.
`C[C@@H](CCCn1ccc2cc(-c3ncc(-c4cc(C(F)(F)F)n(C)n4)cn3)c(F)cc2c1=O)Nc1cn[nH]c(=O)c1C(F)(F)F` [Example 93, (S)-7-fluoro-6-(5-(1-methyl-5-(trifluoromethyl)-1H-pyrazol-3-yl)pyrimidin-2-yl)-2-(4-((6-oxo-5-(trifluoromethyl)-1,6-dihydropyridazin-4-yl)amino)pentyl)isoquinolin-1(2H)-one] was tested, and the EC50 was 0.0459 µM.
`COc1cnc(-c2cc3ccn(CCC[C@H](C)Nc4cn[nH]c(=O)c4C(F)(F)F)c(=O)c3cc2F)nc1NCCO` [Example 218, (S)-7-fluoro-6-(4-((2-hydroxyethyl)amino)-5-methoxypyrimidin-2-yl)-2-(4-((6-oxo-5-(trifluoromethyl)-1,6-dihydropyridazin-4-yl)amino)pentyl)isoquinolin-1(2H)-one] gave an EC50 of 1.1 µM.
Molecule `Nc1nc(-c2cc3ncn(C[C@@H]4CCC[C@H](Nc5cn[nH]c(=O)c5C(F)(F)F)C4)c(=O)c3cc2F)ncc1OC(F)F` [Example 265, 7-(4-amino-5-(difluoromethoxy)pyrimidin-2-yl)-6-fluoro-3-(((1R,3S)-3-((6-oxo-5-(trifluoromethyl)-1,6-dihydropyridazin-4-yl)amino)cyclohexyl)methyl)quinazolin-4(3H)-one] has an EC50 of 0.0523 µM.
`C[C@@H](CCCn1ccc2cc(-c3ncc(C(F)F)c(N[C@@H]4C[C@@H]4F)n3)c(F)cc2c1=O)Nc1cn[nH]c(=O)c1C(F)(F)F` [Example 223, 6-(5-(difluoromethyl)-4-(((1R,2S)-2-fluorocyclopropyl)amino)pyrimidin-2-yl)-7-fluoro-2-((S)-4-((6-oxo-5-(trifluoromethyl)-1,6-dihydropyridazin-4-yl)amino)pentyl)isoquinolin-1(2H)-one] showed an EC50 of 0.0333 µM.
`O=c1[nH]ncc(NC[C@H]2C[C@H](Cn3ccc4cc(-c5ncc(C(F)(F)F)cn5)c(F)c(F)c4c3=O)C2)c1C(F)(F)F` [Example 130, 7,8-difluoro-2-(((1R,3R)-3-(((6-oxo-5-(trifluoromethyl)-1,6-dihydropyridazin-4-yl)amino)methyl)cyclobutyl)methyl)-6-(5-(trifluoromethyl)pyrimidin-2-yl)isoquinolin-1(2H)-one] was tested, and the EC50 was 1.47 µM.
Work on `C[C@H](Nc1cn[nH]c(=O)c1C(F)(F)F)[C@H](O)CCn1ccc2cc(-c3ncc(C(F)(F)F)cn3)c(F)cc2c1=O` [Example 445, 7-fluoro-2-((3R,4S)-3-hydroxy-4-((6-oxo-5-(trifluoromethyl)-1,6-dihydropyridazin-4-yl)amino)pentyl)-6-(5-(trifluoromethyl)pyrimidin-2-yl)isoquinolin-1(2H)-one] yielded an EC50 of 0.0185 µM.
Molecule `CNc1nc(-c2cc3ccn(CCC[C@H](C)Nc4cn[nH]c(=O)c4C(F)(F)F)c(=O)c3cc2F)ncc1C(F)(F)F` [Example 106, 7-fluoro-6-[4-(methylamino)-5-(trifluoromethyl)pyrimidin-2-yl]-2-[(4S)-4-[[6-oxo-5-(trifluoromethyl)-1H-pyridazin-4-yl]amino]pentyl]isoquinolin-1-one] has an EC50 of 0.00231 µM.
With `CC(C)(O)c1cnc(-c2cc3ccn(C[C@@H]4CCC[C@H](Nc5cn[nH]c(=O)c5C(F)(F)F)C4)c(=O)c3cc2F)cn1` [Example 267, 7-fluoro-6-(5-(2-hydroxypropan-2-yl)pyrazin-2-yl)-2-(((1R,3S)-3-((6-oxo-5-(trifluoromethyl)-1,6-dihydropyridazin-4-yl)amino)cyclohexyl)methyl)isoquinolin-1(2H)-one] the EC50 was 0.0802 µM.
